Reference: PubChem BioAssay AID2743 (NMMLSC, 2010)
Calls of active or inactive are those of the source.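 How the source made its calls: active means fitted half-maximal concentration for change in GFP expression of 33 µM or less; inactive means the rest.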

Experiment: potency of AGP1-GFP expression modulators in yeast, dose response, cell-based, flow cytometry, S. cerevisiae, MLPCN hits (AID 2743)
Conditions: S. cerevisiae AGP1-GFP strain, flow cytometry GFP, 3 h; at 33 µM (top of the series)

Row | Structure (SMILES) | GFP fluorescence (kMESF)
1 | CC(=O)N(C1=C(Cl)C(=O)c2ccccc2C1=O)C1CCCCC1 | -0.34 kMESF (inactive)
2 | CCC(=O)Oc1oc(-c2ccccc2)nc1C=Nc1ccc(C)cc1 | 41.9 kMESF (inactive)
3 | COc1ccc(C(c2c(C)[nH]n(C(N)=S)c2=O)C(C#N)C#N)cc1 (stereo not drawn) | 44.2 kMESF (inactive)
4 | O=c1oc2cc(Oc3c([N+](=O)[O-])cc(C(F)(F)F)cc3[N+](=O)[O-])ccc2c2c1CCCC2 | 40 kMESF (inactive)
5 | O=C(Nc1ccccc1)c1nnsc1S(=O)(=O)c1ccc(Cl)cc1 | 38.4 kMESF (inactive)
6 | COc1ccc(N2C(=O)CC(Sc3ncn[nH]3)C2=O)c(OC)c1 (stereo not drawn) | 36.2 kMESF (inactive)
7 | CCSc1nnc(NC(=O)c2ccccn2)s1 | 39.6 kMESF (inactive)
8 | COc1cc(/C=C2/C(=O)ON=C2c2ccccc2)ccc1O | 25 kMESF (inactive)
9 | CC1=C/C(=N\OS(=O)(=O)c2ccccc2)C(C)=CC1=O | 34.7 kMESF (inactive)
10 | COc1ccccc1[C@@]1(C)ON(c2ccccc2C(F)(F)F)C1=O | 30.9 kMESF (inactive)
11 | Cc1[nH][nH]c(=O)c1C(c1ccc(-c2ccc(Cl)cc2)o1)c1c(C)[nH][nH]c1=O | 39.2 kMESF (inactive)
12 | O=C(/C=C/c1ccccc1)c1cc(Br)ccc(=O)c1O | -1.01 kMESF (inactive)
13 | O=C(Nc1ccc(NC(=O)c2cc3ccccc3o2)cc1)c1ccco1 | 44.8 kMESF (inactive)
14 | Cc1ccc2nc(Cl)c3nnnn3c2c1 | 33.8 kMESF (inactive)
15 | Cc1c(Cc2ccccc2)c(NCCN(C)C)n2c(nc3ccccc32)c1C#N | 45.4 kMESF (inactive)
16 | COc1ccc(/C=C2\C(=O)ON=C2c2ccccc2)cc1 | 28 kMESF (inactive)
17 | Cc1ccc(NC(=O)c2nc(S(=O)(=O)Cc3ccccc3)ncc2Cl)cc1 | 45.8 kMESF (inactive)
18 | Cc1ccc(C(=O)Oc2oc(-c3ccco3)nc2C=Nc2ccc(Cl)cc2)cc1 | 35 kMESF (inactive)
19 | Cc1ccc(N=Nc2ccc(O)c3ncccc23)cc1 | 35.1 kMESF (inactive)
20 | COc1ccc(N2C(=O)C(Cl)=C(Nc3c(C)n(C)n(-c4ccccc4)c3=O)C2=O)cc1 | 36.2 kMESF (inactive)
21 | COc1cccc(/C=C2\SC(=S)N(CCCC(=O)Nc3ccc(C(=O)O)cc3)C2=O)c1 | 34.8 kMESF (inactive)
22 | O=C1C=CC(=O)N1c1ccc(OC(F)F)cc1 | 27.8 kMESF (inactive)

Row | Structure (SMILES) | GFP fluorescence (kMESF)
23 | C=CCOc1ccccc1C(=O)/C=C1/C(=O)Nc2ccccc21 | 43.2 kMESF (inactive)
24 | O=c1cc(CSc2ccc(Cl)cc2)nc(-c2ccccn2)[nH]1 | 25.7 kMESF (inactive)
25 | O=C(O)/C=C/C(=O)c1ccc2c(c1)CCc1ccccc1-2 | 18.9 kMESF (inactive)
26 | Cc1ccccc1[C@@]1(C)ON(c2ccccc2C(F)(F)F)C1=O | 29.8 kMESF (inactive)
27 | O=C(Oc1oc(-c2ccco2)nc1C=Nc1ccccc1)c1ccoc1 | 44.7 kMESF (inactive)
28 | Cc1ccc(NC(=O)c2cc(N3C(=O)C=CC3=O)ccc2N2CCOCC2)cc1Cl | 36.2 kMESF (inactive)
29 | O=C(Nc1ccc(NC(=O)c2cc3ccccc3o2)cc1)c1ccc2c(c1)OCCO2 | 42.8 kMESF (inactive)
30 | CCCc1cc(=O)oc2cc(C)cc(OCC(=O)NC3CC3)c12 | 41 kMESF (inactive)
31 | O=C(NC(=S)NNC(=O)c1ccc(Cl)cc1Cl)c1cccnc1 | 26.1 kMESF (inactive)
32 | COc1cccc(/C=N/Nc2ncc(C(F)(F)F)cc2Cl)c1O | 34.3 kMESF (inactive)
33 | C#CCOCCOCCOCCNc1nc(N2CCN(C(=O)CCCCCCCCCCNC(=O)[C@H](CCCCN)n3cc(CCCC(=O)O)nn3)CC2)nc(N2CCN(C(=O)CCCCCCCCCCNC(=O)[C@H](CCCN=C(N)N)n3cc(C[C@@H](C)CC)nn3)CC2)n1 | 42.4 kMESF (inactive)
34 | O=C(Nc1nnc(-c2ccc(F)cc2)o1)c1cc(Cl)sc1Cl | 40.6 kMESF (inactive)
35 | O=C(/C=C/c1ccc(Br)cc1)NC(=S)NNC(=O)c1ccco1 | 36.3 kMESF (inactive)
36 | Cc1ccc2c(nc3s/c(=C\c4ccc(-c5ccccc5C(=O)O)o4)c(=O)n32)c1C | 49.9 kMESF (inactive)
37 | C=C1C(O)[C@@H]2O[C@]3(CC[C@H](/C=C/C(C)[C@@H]4CC(C)=CC5(O[C@H](C[C@@](C)(O)C(=O)O)CCC5O)O4)O3)CC[C@H]2O[C@@H]1C(O)CC(C)[C@H]1OC2(CCCCO2)CCC1C (stereo partly drawn) | 35.8 kMESF (inactive)
38 | O=C(Nc1ccccc1)ON=C1CCCC1 | 21.6 kMESF (inactive)
39 | O=[N+]([O-])c1ccc(S(=O)(=O)c2cccc(C(F)(F)F)c2)nc1 | 37.7 kMESF (inactive)
40 | CCCCS(=O)(=O)/C=C\C=C/S(=O)(=O)CCCC | 26.3 kMESF (inactive)
41 | O=C(NOC(=O)c1ccccc1)c1ccccc1 | 25.9 kMESF (inactive)
42 | COc1ccc(/C=C2/C(=O)ON=C2c2ccccc2)cc1OC | 27.1 kMESF (inactive)
43 | O=C1N(c2ccccc2C(F)(F)F)O[C@@]1(c1ccccc1)C1CCCC1 | 38.4 kMESF (inactive)
44 | O=C(O)c1ccn2c(C(=O)c3ccccc3)c(-c3ccccc3)cc2c1 | 37.7 kMESF (inactive)

Row | Structure (SMILES) | GFP fluorescence (kMESF)
45 | CCOC(=O)CSC1=NC(=O)/C(=C/c2ccc(OC)cc2)S1 | 43.4 kMESF (inactive)
46 | COc1cc(NC(=O)c2ccccc2[N+](=O)[O-])ccc1NC(=O)c1cc2ccccc2o1 | 44.3 kMESF (inactive)
47 | COc1cc(/C=C2\C(=O)ON=C2c2ccccc2)cc(Br)c1O | 28.7 kMESF (inactive)
48 | O=C(Oc1c(Cl)cc(Cl)c2cccnc12)c1cccs1 | 25.9 kMESF (inactive)
49 | CC(C)CC(=O)NC(=S)Nc1nc(-c2ccccc2)cs1 | 38.8 kMESF (inactive)
50 | COc1cccc(/C=C2\C(=O)N(c3cccc(C)c3)C(=O)c3ccccc32)c1 | 45.3 kMESF (inactive)
51 | CCOC(=O)c1c(C)oc2c1c(C(c1ccncc1)N1CCOCC1)c(O)c1ccccc12 (stereo not drawn) | 21.4 kMESF (inactive)
52 | COc1ccc(C=C2C(=O)c3ccccc3C2=O)cc1O | 34.7 kMESF (inactive)
53 | O=C(COc1ccccc1)NNC(=S)NC(=O)c1ccccc1 | 42.7 kMESF (inactive)
54 | CCOC(=O)C(C(=O)OCC)C(C(=O)OCC)N1CCOCC1 (stereo not drawn) | 41 kMESF (inactive)
55 | O=C(/C=C/c1ccccn1)c1cc(Br)ccc1O | 37.3 kMESF (inactive)
56 | Cc1cccc(N2C(=O)C(Cl)=C(Nc3c(C)n(C)n(-c4ccccc4)c3=O)C2=O)c1C | 43.3 kMESF (inactive)
57 | Cc1ccc(/C=C2\C(=O)NC(=S)N(c3ccccc3F)C2=O)s1 | 26.9 kMESF (inactive)
58 | O=C(Nc1ccc(N2CCOCC2)cc1)C1CCN(S(=O)(=O)c2ccc3c(c2)OCCO3)CC1 | 34 kMESF (inactive)
59 | O=C1NC(=O)N(CCc2ccc(F)cc2)C(=O)/C1=C/c1cccs1 | 39.1 kMESF (inactive)
60 | O=C1C=CC(=O)N1N(c1ccccc1)c1ccccc1 | 37 kMESF (inactive)
61 | Cc1cccc(NC(c2ccc(C)s2)c2ccc3ccc(C)nc3c2O)n1 (stereo not drawn) | 32.5 kMESF (inactive)
62 | Cc1c(C)c2ccc(Oc3ccc([N+](=O)[O-])cc3C(F)(F)F)c(C)c2oc1=O | 33.9 kMESF (inactive)
63 | COc1ccc(Cl)cc1C(Nc1cccnc1)c1ccc2cccnc2c1O (stereo not drawn) | 36.3 kMESF (inactive)
64 | CC[C@]1(c2ccccc2C)ON(c2ccccc2C(F)(F)F)C1=O | 38.9 kMESF (inactive)
65 | COc1ccc(C(=O)/C=C2/C(=O)Nc3ccccc32)c(OC)c1 | 43.2 kMESF (inactive)
66 | COc1ccc(C2=CC(=O)N(Nc3ccccc3)C2=O)cc1 | 39.9 kMESF (inactive)

Row | Structure (SMILES) | GFP fluorescence (kMESF)
67 | O=C(c1ccc(Cl)cc1)N1CCN(c2cccc3[nH]ccc23)CC1 | 46.1 kMESF (inactive)
68 | CC1=NNC(=O)/C1=C\c1cn(-c2ccccc2)nc1-c1ccccc1 | 40.4 kMESF (inactive)
69 | O=C(CCc1ccccc1)NNC(=S)NC(=O)c1ccccc1 | 50.8 kMESF (inactive)
70 | Cc1ccc(S(=O)(=O)c2ncccc2[N+](=O)[O-])cc1 | 47.1 kMESF (inactive)
71 | COc1ccc(/C=C/C(=O)c2cc(Br)ccc(=O)c2O)cc1 | -39.3 kMESF (inactive)
72 | CC(=O)Oc1oc(-c2ccccc2)nc1C=Nc1ccccc1 | 33.5 kMESF (inactive)
73 | CCOc1ccccc1/C=c1\sc2ncnn2c1=O | 39.5 kMESF (inactive)
74 | Cc1cc(C(=O)Nc2nc(-c3ccccn3)cs2)ccc1[N+](=O)[O-] | 44.4 kMESF (inactive)
75 | CC1=C/C(=N\OS(=O)(=O)c2ccccc2)C(C(C)C)=CC1=O | 28.8 kMESF (inactive)
76 | O=C(OCn1ncc(Br)c(Br)c1=O)c1ccc(F)cc1 | 43.7 kMESF (inactive)
77 | ClC(Cl)(c1nnnn1-c1ccccc1)c1nnnn1-c1ccccc1 | 35.1 kMESF (inactive)
78 | C#CCOc1c(Br)cc(/C=C2/C(=O)ON=C2C)cc1OC | 27.6 kMESF (inactive)
79 | O=c1[nH]c(-c2ccc(Cl)cc2)cs1 | 39.4 kMESF (inactive)
80 | Cc1ccc(C(=O)Sc2cccccc2=O)cc1 | 33 kMESF (inactive)
81 | CCOc1ccc(C(C)=O)cc1N1C(=O)C2C3C=CC(O3)C2C1=O (stereo not drawn) | 40.5 kMESF (inactive)
82 | CC(C)Cn1c(=O)c(C(=O)Nc2ccncc2)c(O)c2ccccc21 | 16.1 kMESF (inactive)
83 | O=C1C(Cl)=C(Nc2ccccc2O)C(=O)N1CCc1ccccc1 | 39.3 kMESF (inactive)
84 | COc1cc(C=C2C(=O)c3ccccc3C2=O)cc(OC)c1OC | 38.9 kMESF (inactive)
85 | O=[N+]([O-])c1c(Nc2ccccn2)cc(Cl)c2nonc12 | 26.8 kMESF (inactive)
86 | COc1ccc(N2C(=O)/C(=C/c3cccs3)C(=O)NC2=S)cc1 | 27.3 kMESF (inactive)
87 | Cc1cc(/C=C2/SC(=S)N(c3cccc(Cl)c3)C2=O)c(C)n1-c1cccnc1 | 46.4 kMESF (inactive)
88 | CC(C)(C)n1nc(-c2ccc(F)cc2)c2c(N)ncnc21 | 40.2 kMESF (inactive)
